Test results taken from PMC8843100, “Development of newly synthesised quinazolinone-based CDK2 inhibitors with potent efficacy against melanoma” (Journal of Enzyme Inhibition and Medicinal Chemistry, 2022).

How the values were obtained:
Assay in all cases: NCI-60 single dose screen, sulforhodamine B
Format in all cases: cell-based, human
[1] = test system: HCT-116; conditions: Colon cancer HCT-116; single dose 10^−5 M
How it was run: (§1)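 Tested once, at 10^−5 M in DMSO, the compounds stayed on the cells for 2 days before SRB staining. A time-zero control, set one day after seeding, lets cell kill be told apart from growth inhibition.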

[2] = test system: SR; conditions: Leukaemia SR; single dose 10^−5 M
How it was run: as §1

[3] = test system: NCI-H23; conditions: Non-small cell lung cancer NCI-H23; single dose 10^−5 M
How it was run: as §1

[4] = test system: SF-295; conditions: CNS cancer SF-295; single dose 10^−5 M
How it was run: as §1

[5] = test system: MDA-MB-435; conditions: Melanoma MDA-MB-435; single dose 10^−5 M
How it was run: as §1

[6] = test system: SNB-75; conditions: CNS cancer SNB-75; single dose 10^−5 M
How it was run: as §1

[7] = test system: LOX IMVI; conditions: Melanoma LOX IMVI; single dose 10^−5 M
How it was run: as §1

[8] = test system: M14; conditions: Melanoma M14; single dose 10^−5 M
How it was run: as §1

[9] = test system: MOLT-4; conditions: Leukaemia MOLT-4; single dose 10^−5 M
How it was run: as §1

[10] = test system: NCI-H226; conditions: Non-small cell lung cancer NCI-H226; single dose 10^−5 M
How it was run: as §1

[11] = test system: NCI-H322M; conditions: Non-small cell lung cancer NCI-H322M; single dose 10^−5 M
How it was run: as §1

[12] = test system: RPMI-8226; conditions: Leukaemia RPMI-8226; single dose 10^−5 M
How it was run: as §1

[13] = test system: A549/ATCC; conditions: Non-small cell lung cancer A549/ATCC; single dose 10^−5 M
How it was run: as §1

[14] = test system: SK-MEL-28; conditions: Melanoma SK-MEL-28; single dose 10^−5 M
How it was run: as §1

[15] = test system: K-562; conditions: Leukaemia K-562; single dose 10^−5 M
How it was run: as §1

[16] = test system: HCC-2998; conditions: Colon cancer HCC-2998; single dose 10^−5 M
How it was run: as §1

[17] = test system: ACHN; conditions: Renal cancer ACHN; single dose 10^−5 M
How it was run: as §1

[18] = test system: SN12C; conditions: Renal cancer SN12C; single dose 10^−5 M
How it was run: as §1

[19] = test system: MDA-MB-231/ATCC; conditions: Breast cancer MDA-MB-231/ATCC; single dose 10^−5 M
How it was run: as §1

[20] = test system: DU-145; conditions: Prostate cancer DU-145; single dose 10^−5 M
How it was run: as §1

[21] = test system: T-47D; conditions: Breast cancer T-47D; single dose 10^−5 M
How it was run: as §1

[22] = test system: TK-10; conditions: Renal cancer TK-10; single dose 10^−5 M
How it was run: as §1

[23] = test system: OVCAR-5; conditions: Ovarian cancer OVCAR-5; single dose 10^−5 M
How it was run: as §1

[24] = test system: KM12; conditions: Colon cancer KM12; single dose 10^−5 M
How it was run: as §1

[25] = test system: U251; conditions: CNS cancer U251; single dose 10^−5 M
How it was run: as §1

[26] = test system: NCI-H522; conditions: Non-small cell lung cancer NCI-H522; single dose 10^−5 M
How it was run: as §1

[27] = test system: HT29; conditions: Colon cancer HT29; single dose 10^−5 M
How it was run: as §1

[28] = test system: SW-620; conditions: Colon cancer SW-620; single dose 10^−5 M
How it was run: as §1

[29] = test system: HCT-15; conditions: Colon cancer HCT-15; single dose 10^−5 M
How it was run: as §1

[30] = test system: OVCAR-8; conditions: Ovarian cancer OVCAR-8; single dose 10^−5 M
How it was run: as §1

[31] = test system: PC-3; conditions: Prostate cancer PC-3; single dose 10^−5 M
How it was run: as §1

[32] = test system: SNB-19; conditions: CNS cancer SNB-19; single dose 10^−5 M
How it was run: as §1

For `COc1ccc(N2CCN(CC(=O)Nn3c(COc4ccccc4)nc4ccccc4c3=O)CC2)cc1` [Compound 8c, 2–(4-(4-methoxyphenyl)piperazin-1-yl)-N-(4-oxo-2-(phenoxymethyl)quinazolin-3(4H)-yl)acetamide], the “GI% at 10^−5 M” value [1] was “– (– means GI < 10%)”, the “GI% at 10^−5 M” value [2] was 12.84% and the “GI% at 10^−5 M” value [3] was “– (– means GI < 10%)”. For the same molecule, the “GI% at 10^−5 M” value [4] was “– (– means GI < 10%)”, the “GI% at 10^−5 M” value [5] was “– (– means GI < 10%)” and the “GI% at 10^−5 M” value [6] was 26.47%. For the same molecule, the “GI% at 10^−5 M” value [7] was “– (– means GI < 10%)”, the “GI% at 10^−5 M” value [8] was “– (– means GI < 10%)” and the “GI% at 10^−5 M” value [9] was “– (– means GI < 10%)”. For the same molecule, the “GI% at 10^−5 M” value [10] was “– (– means GI < 10%)”, the “GI% at 10^−5 M” value [11] was “– (– means GI < 10%)” and the “GI% at 10^−5 M” value [12] was “– (– means GI < 10%)”. The “GI% at 10^−5 M” value [13] was “– (– means GI < 10%)”, the “GI% at 10^−5 M” value [14] was “– (– means GI < 10%)” and the “GI% at 10^−5 M” value [15] was “– (– means GI < 10%)”. The “GI% at 10^−5 M” value [16] was “– (– means GI < 10%)”, the “GI% at 10^−5 M” value [17] was “– (– means GI < 10%)” and the “GI% at 10^−5 M” value [18] was “– (– means GI < 10%)”. The “GI% at 10^−5 M” value [19] was “– (– means GI < 10%)”, the “GI% at 10^−5 M” value [20] was “– (– means GI < 10%)” and the “GI% at 10^−5 M” value [21] was “– (– means GI < 10%)”. The “GI% at 10^−5 M” value [22] was “– (– means GI < 10%)”, the “GI% at 10^−5 M” value [23] was “– (– means GI < 10%)” and the “GI% at 10^−5 M” value [24] was “– (– means GI < 10%)”. The “GI% at 10^−5 M” value [25] was “– (– means GI < 10%)”, the “GI% at 10^−5 M” value [26] was 10.67% and the “GI% at 10^−5 M” value [27] was “– (– means GI < 10%)”. For the same molecule, the “GI% at 10^−5 M” value [28] was “– (– means GI < 10%)”, the “GI% at 10^−5 M” value [29] was “– (– means GI < 10%)” and the “GI% at 10^−5 M” value [30] was “– (– means GI < 10%)”. The “GI% at 10^−5 M” value [31] was 14.02% and the “GI% at 10^−5 M” value [32] was “– (– means GI < 10%)”.
